{"source": "patent US5030442A", "about": "(priority 1989, dated 1991)", "origin": "cited, not measured here", "conditions": "topical form, initial clinical studies", "note": "“Also recorded” adds a separate entry of the source.", "data": [{"smiles": "Nc1cc(N2CCCCC2)nc(N)[n+]1[O-]", "note": "[minoxidil]", "values": [{"measurement": "hair growth response (in words)", "value": "reversal of male pattern baldness is most favorable in younger men, and where recent hair loss has occurred; also recorded: new hair growth is observed in a significant percentage of older men and/or where in cases of long-term baldness"}]}]}
